US20040058425A1, “Crystal structure” (priority 2001, published 2004)

Columns and labels:
PDHK [1] = assay: Assay to measure whether compounds inhibit PDHK activity (kinase reaction with porcine PDH and MgATP, then residual PDH activity by NAD reduction at 340 nm); assay type: biochemical; settings: result in words
Protocol: Compounds were assessed for inhibition of PDHK in an assay adapted from Espinal, J. et al (1995) Drug Development Res. 35, 130-136. In the first part of the assay, compounds were incubated with porcine PDH (Sigma P-7032) and MgATP, and the reaction was stopped after defined intervals. In the second part of the assay, the residual PDH activity was measured by monitoring the rate of reduction of NAD at 340 nm.
The assay was performed in flat-bottom 96-well microtitre plates, using a final volume of 50 μl for the first part of the assay (kinase reaction), and 250 μl for the PDH reaction. At first, 10 μl test compound in a suitable diluent, 20 μl kinase buffer (20 mM potassium phosphate, pH7.0, 4 mM MgCl2, 4 mM dithiothreitol) and 10 μl PDH (Sigma, P-7032, diluted with water to a final concentration of 1.83 mg/ml) were mixed and incubated for 10 min; then 10 μl ATP solution (125 μM in kinase buffer) was added to start the reaction.
The incubations were done at 30° C. The kinase reaction was terminated after defined intervals (usually 0, 10, 20, 30, 60, and 90 min) by initiating the PDH reaction. […] Kinetic readings were then taken at 340 nm conducted at 12 sec intervals for 20 min with shaking for 1 sec before each reading was taken, in a SpectraMax plate reader. […]

PDHK [2] = assay: Kinase activity of PDHK using a PDHK specific substrate peptide; assay type: biochemical; settings: data not shown

CC1CN(C(=O)C(C)(O)C(F)(F)F)C(C)CN1C(=O)c1ccc(C#N)cc1 (stereo not shown) [Compound 1]
ATP dependent inhibition of the PDH complex (PDHK [1]): prevent ATP dependent inhibition of the PDH complex
inhibition of the kinase activity of PDHK (PDHK [2]): do not inhibit the kinase activity of PDHK

N-{4-[(ethylanilino)sulfonyl]-2-methylphenyl}-3,3,3-trifluoro-2-hydroxy-2-methylpropanamide [Compound 2]
ATP dependent inhibition of the PDH complex (PDHK [1]): prevent ATP dependent inhibition of the PDH complex
inhibition of the kinase activity of PDHK (PDHK [2]): do not inhibit the kinase activity of PDHK
